Assay results: patent US20220370397A1, “METHODS AND COMPOSITIONS FOR TREATMENT OF CANCER” (Enzychem Lifesciences Corporation, priority 2019, published 2022)

Columns and labels:
[1] = system: MDA-MB-231 breast cancer Xenograft; test: MDA-MB-231 breast cancer Xenograft model, AC-regimen alone and PLAG co-treatment; format: in vivo, mouse
Experimental: MDA-MB-231 breast cancer Xenograft model was used. Tumor growth was evaluated in the AC-regimen alone and PLAG co-treated animals. AC-regimen was delivered via IP injection twice a week with dose of 2/20 and 5/50 mph (Doxorubicin/Cyclophosphamide), and PLAG was daily administered with 100 and 250 mpk. Tumor growth was calculated with 3 day intervals. Neutrophil chemotaxis related chemokines, CXCL1/2/8 and circulating neutrophils were also evaluated with 2 week internal. Expression of apoptosis molecular markers, Bax/Bak and tumor-infiltrating neutrophil (TIN) in the tumor lesion was analyzed by immunohistochemistry (IHC).

[2] = system: neutrophil-activated MDA-MB-231 breast cancer cells; test: Cell growth and cell cycle activity in neutrophil-activated cancer cells; format: cell-based
Excerpt: Compared to negative control each week: *P<0.05, **P<0.01, ***P<0.001 (each experiment n=5). N.S., not significant. Compared to neutrophil stimulated only group each week: #P<0.05, ##P<0.01, ###P<0.001 (each experiment n=5). N.S.′, not significant.

PAR2 = PAR2 degradation (western blot, immunoprecipitation, ubiquitination assay); format: cell-based; conditions: PLAG and neutrophil co-treated cancer cells / cancer tissues
[3] = system: MB49 murine bladder cancer cells; test: MB49 bladder cancer syngeneic model, PLAG with or without PD-L1 antibody; format: in vivo, C57BL/6 mice
Excerpt: The syngeneic model was used (n=6) to investigate the enhanced anti-tumor effect of PD-L1 antibody with the addition of PLAG. MB49 murine bladder cancer cells were implanted into the C57BL/6 mice subcutaneously and bred for 5 weeks. After a week from tumor implantation, PLAG at different dosages (50/100 mpk) were daily administered orally for another 4 weeks with or without 5 mpk PD-L1 antibody (10F.9G2). PD-L1 antibody was delivered via IP injection once a week. (FIG. 7, Table 1)

tumor in Xenograft mice = test: PLAG alone in Xenograft mice (tumor mass, neutrophil infiltration, chemokines, cell cycle factors by IHC); format: in vivo, mouse
Excerpt: Compared to positive control: *P<0.05, ***P<0.001 (each experiment n=5).
Compared to positive control: *P<0.05, **P<0.01 (each experiment n=5).
N.S., not significant. Compared to positive control; #P<0.05, ##P<0.01, ###P<0.001 (each experiment n=5). N.S.′, not significant.
Compared to positive control: *P<0.05, **P<0.01 (each experiment n=5). N.S., not significant.

LLC-1 lung carcinoma = test: LLC-1 syngeneic model, PLAG with or without aPD-1; format: in vivo, C57BL/6 mice
Excerpt: To investigate the enhanced anti tumor effect of the anti-PD-1 antibody (aPD-1 with the addition of 1-palmitoyl-2-linoleoyk-3-acetyl-rac-glycerol (PLAG), the syngeneic model was used (n=6/group), LLC-1 lung carcinoma was implanted into C57BL/6 mice subcutaneously. PLAG was daily administrated for 4 weeks with or without aPD-1 (RMP 1-14. aPD-1 was delivered via IP injection once a week. The degree of infiltrated lymphocyte population and neutrophils in the tumor and blood on the sacrificed day were analyzed (FIG. 12, Table 2).

Question: `CCCCC/C=C\C/C=C\CCCCCCCC(=O)OC(COC(C)=O)COC(=O)CCCCCCCCCCCCCCC` (stereo not drawn) [PLAG, 1-palmitoyl-2-linoleoyl-3-acetylglycerol] was tested. Which “tumor tissue on the sacrifice day” value ([1]; 250 mpk PLAG co-treated with 5/50 AC-regimen) did it give?
Answer: no tumor tissues were found

Question: What about the “tumor burden compared with AC-regimen alone group” value ([1]; PLAG 100 and 250 mpk daily co-treated with 5/50 AC-regimen, p<0.05) of the same compound?
Answer: significantly decreased in a concentration-dependent manner

Question: What about the “tumor-infiltrating neutrophil (TIN)” value ([1]; PLAG added to AC-regimen, IHC) of the same compound?
Answer: Significantly reduced

Question: What about the chemokine expression ([1]; PLAG added to AC-regimen, chemokine analysis) of the same compound?
Answer: Significantly reduced

Question: What about the chemokine expression ([1]; PLAG alone) of the same compound?
Answer: reduced

Question: What about the tumor growth ([1]; PLAG alone) of the same compound?
Answer: interruption of tumor growth

Question: And the “tumor-infiltrating neutrophil (TIN)” value ([1]; PLAG alone)?
Answer: reduced

Question: And the “kind of combined effect on regression of tumor burden” value ([1]; PLAG co-treated with AC-regimen)?
Answer: synergistic effect

Question: What about the “tumor burden compared with AC-regimen alone” value ([1]; PLAG co-treated with AC-regimen, until sacrifice) of the same compound?
Answer: smaller tumor burden than that in AC-regimen alone

Question: What about the cell cycle activity ([2]; neutrophil activated cancer cells) of the same compound?
Answer: inhibitory effect

Question: And the cell growth ([2]; neutrophil-activated MDA-MB-231 cells, dose-dependent)?
Answer: inhibition of cell growth

Question: And the PAR2 degradation (PAR2)?
Answer: inducing PAR2 degradation

Question: And the “number of TINs” value ([3]; PLAG alone)?
Answer: effectively reduced

Question: And the “tumor burden compared to positive control” value ([3]; PLAG alone 50 and 100 mpk, oral daily, p<0.05)?
Answer: decreased to a significant value

Question: And the “growth of the tumor compared to PD-L1 antibody alone” value ([3]; PLAG and PD-L1 antibody simultaneously)?
Answer: significantly reduced

Question: And the “neutrophil-to-lymphocyte ratio (NLR) level compared to PD-L1 antibody alone” value ([3]; PLAG and PD-L1 antibody, blood, every two weeks)?
Answer: significantly decreased

Question: What about the chemokine secretion ([3]; PLAG treated groups) of the same compound?
Answer: reduced

Question: And the “expression of neutrophil chemotactic chemokine in cancer tissues” value (tumor in Xenograft mice)?
Answer: effectively regulate

Question: What about the “infiltration of neutrophils in cancer tissues” value (tumor in Xenograft mice) of the same compound?
Answer: control excessive infiltration of neutrophils

Question: And the “cell cycle of cancer tissues / excessive growth” value (tumor in Xenograft mice; without additional chemotherapeutic agents)?
Answer: regulate excessive growth by inhibiting the cell cycle

Question: And the “tumor burden compared to positive control” value (LLC-1 lung carcinoma; PLAG alone 50 and 100 mpk)?
Answer: significantly reduced

Question: What about the “activity and infiltration of cytotoxic T-Lymphocyte (CTLs) in the tumor compared to aPD-1 alone” value (LLC-1 lung carcinoma; PLAG co-treated with aPD-1) of the same compound?
Answer: effectively increased

Question: And the “neutrophil to lymphocyte ratio levels compared to aPD-1 alone” value (LLC-1 lung carcinoma; PLAG co-treated with aPD-1)?
Answer: decreased remarkably

Question: And the “population of Th 17 compared to the positive control” value (LLC-1 lung carcinoma; PLAG co-treated with aPD-1)?
Answer: significant reduction

Question: What about the “tumor reduction compared to aPD-1 alone” value (LLC-1 lung carcinoma; PLAG co-treated with aPD-1) of the same compound?
Answer: 18

Question: And the “DAMP (adenosine) originated from tumor, plasma” value (LLC-1 lung carcinoma; PLAG treatment)?
Answer: rapid removal

Question: And the “degree of neutrophil infiltration in the tumor” value (LLC-1 lung carcinoma; upon PLAG treatment)?
Answer: effectively reduced
